{"source": "patent US10974081B2", "about": "“Treatment and prevention of sleep disorders” (Purdue Pharma L.P., priority 2016, dated 2021)", "key": {"[1]": {"assay": "In vivo renal clearance in humans", "set-up": "species or system human", "details": "for CL renal: male, human, urine", "experimental": "Four healthy male subjects were administered each dose. Table 25 below provides the results in the form of the mean renal clearance, mean total amount excreted unchanged ad Compound (1D), and mean percentage dose excreted unchanged."}, "[2]": {"assay": "In vivo clearance of radiolabeled Compound (1D), rats", "details": "within 48 hours of oral dosing"}, "[3]": {"assay": "Aqueous solubility at pH about 6.8", "assay_type": "physicochemical", "details": "25 °C, pH 6.8, aqueous buffer, kinetic from dmso stock, single value, procedure not stated; read-out: Solubility at pH 6.8"}, "rat plasma": {"system": "rat plasma", "assay": "Rat protein binding, equilibrium dialysis of rat plasma", "assay_type": "in vitro ADME", "details": "24 hours dialysis at 37° C.", "experimental": "The extent of in vitro binding of Compound (1F), […], or W-212393 to rat plasma was determined as an assessment of the protein binding of each compound, i.e., compound unavailable for modulating receptor activity. Plasma from rats containing a tested compound in one chamber of a dialysis cell was dialyzed with PBS in the other chamber; thereafter, the supernatant from each chamber was analyzed for the concentration of the tested compound present. A cell suitable for equilibrium dialysis was used in the determinations. The dialysis membrane described in Example 10 (with molecular mass cutoff of 12,000-14,000 Da) separated the dialysis cell into two chambers. The membrane was soaked with purified water and PBS before being placed into the dialysis cell. 4 μL of an iv formulation of each tested compound was added to 996 μL of rat plasma, the latter obtained using syringe containing heparin and EDTA by the procedure described in Example 10, to provide a plasma sample with a tested compound concentration of 2 μg/mL. 450 μL of the plasma sample was applied to one chamber (plasma chamber) of the dialysis cell. A 450 μL aliquot of PBS was applied to the other chamber (PBS chamber) of the dialysis cell. The dialysis study was conducted in duplicate for each tested compound. After 24 hours of equilibrium dialysis at 37° C., 30 μL of liquid from the plasma chamber of the dialysis cell was collected and to this was added 270 μL of fresh PBS (this combination was designated Sample “1”). Then, 270 μL of liquid from the PBS chamber of the dialysis cell was collected and to this was added 30 μL of control rat plasma (i.e., rat plasma never exposed to any test compound, this combination was designated Sample “2”). Thereafter, each sample was mixed well and stored in a freezer until the next analysis step. After the protein precipitated in the freezer, each supernatant thusly obtained was analyzed by LC-MS-MS for unbound test compound. […] Thereafter, the percentage of rat protein-bound (“RPB”) tested compound was calculated as follows: […]"}, "rats [4]": {"system": "rats", "details": "by suppression of rhythmic firing of SCN neurons; cited from earlier work"}, "in vivo": {"assay": "in vivo", "details": "male, Crl, CD(SD), rat, brain homogenate and plasma, iv, 0.5 mg/kg"}, "[5]": {"assay": "In vivo functional observational battery (FOB)", "details": "male, Crl:CD(SD), rat, in vivo, po"}, "rats [6]": {"system": "rats", "assay": "In vivo functional observational battery (FOB)", "details": "for Behavior: 1 mg/kg"}, "[7]": {"details": "3 mg/kg, 0.5 h after administration"}, "[8]": {"details": "3 mg/kg, 1 h after administration"}, "[9]": {"details": "3 mg/kg, 2 h after administration"}, "[10]": {"details": "3 mg/kg, 4 h after administration"}, "[11]": {"details": "3 mg/kg, 6 h after administration"}, "[12]": {"details": "300 mg/kg, 0.5 h after administration"}, "[13]": {"details": "300 mg/kg, 1 h after administration"}, "[14]": {"details": "300 mg/kg, 2 h after administration"}, "[15]": {"details": "300 mg/kg, 4 h after administration"}, "[16]": {"details": "300 mg/kg, 6 h after administration"}}}
{"compound": "O=C(O)c1nc2ccccc2n([C@H]2C[C@H]3CCC[C@@H](C2)N3C2CC3CCCC(C3)C2)c1=O", "note": "(stereo partly shown) [Compound (1D)]", "values": [{"measurement": "absorption from the gastrointestinal tract", "setting": "[1]; 3 mg oral dose, aqueous suspension", "result": "essentially completely absorbed"}, {"measurement": "Mean % Dose Excreted Unchanged", "setting": "[1]; 3.0 mg single oral dose", "result": 89, "unit": "%"}, {"measurement": "Mean Total Amount Excreted Unchanged", "setting": "[1]; 3.0 mg single oral dose", "result": 2.66, "unit": "mg"}, {"measurement": "Mean % Dose Excreted Unchanged", "setting": "[1]; 10 mg single oral dose", "result": 70, "unit": "%"}, {"measurement": "Mean Total Amount Excreted Unchanged", "setting": "[1]; 10 mg single oral dose", "result": 6.95, "unit": "mg"}, {"measurement": "Mean % Dose Excreted Unchanged", "setting": "[1]; 30 mg single oral dose", "result": 28, "unit": "%"}, {"measurement": "Mean Total Amount Excreted Unchanged", "setting": "[1]; 30 mg single oral dose", "result": 8.37, "unit": "mg"}, {"measurement": "renal elimination mechanism", "setting": "[1]; in addition to glomerular filtration", "result": "active renal tubular secretion"}, {"measurement": "CL renal", "setting": "[1]; 3.0 mg single oral dose", "result": 275, "unit": "mL/min"}, {"measurement": "CL renal", "setting": "[1]; 10 mg single oral dose", "result": 266, "unit": "mL/min"}, {"measurement": "CL renal", "setting": "[1]; 30 mg single oral dose", "result": 270, "unit": "mL/min"}, {"measurement": "excretion in human urine", "setting": "[1]; single oral doses 3, 10, 30 mg", "result": "excreted largely unchanged"}, {"measurement": "Average % Elimination, Fecal", "setting": "[2]; Rat (female)", "result": 27.9, "unit": "%"}, {"measurement": "Average % Elimination, Fecal + Urinary", "setting": "[2]; Rat (female)", "result": 94.7, "unit": "%"}, {"measurement": "Average % Elimination, Urinary", "setting": "[2]; Rat (female)", "result": 66.8, "unit": "%"}, {"measurement": "Average % Elimination, Fecal", "setting": "[2]; Rat (male)", "result": 41.6, "unit": "%"}, {"measurement": "Average % Elimination, Fecal + Urinary", "setting": "[2]; Rat (male)", "result": 96.0, "unit": "%"}, {"measurement": "Average % Elimination, Urinary", "setting": "[2]; Rat (male)", "result": 54.4, "unit": "%"}]}
{"compound": "CNC(=O)Cn1c(=O)n(C2CCN([C@@H]3Cc4cccc5cccc3c45)CC2)c2ccccc21", "note": "[Compound W-212393]", "values": [{"measurement": "solubility at 16 h", "setting": "[3]", "result": 42, "unit": "µM"}, {"measurement": "stability in rat plasma during the determination", "setting": "rat plasma", "result": "unstable in plasma"}, {"measurement": "brain penetration relative to average of Compound (1C)", "setting": "0.5/0.033", "result": "at least 15 times"}, {"measurement": "brain penetration relative to maximum value of Compound (1C)", "setting": "0.5/0.040", "result": "at least 13 times"}, {"measurement": "effect on circadian body temperature rhythm", "setting": "rats [4]", "result": "induced a phase advance"}, {"measurement": "Kp at 0.5 h", "setting": "in vivo", "result": 0.5}, {"measurement": "NOAEL", "setting": "[5]", "result": 1, "unit": "mg/kg"}, {"measurement": "Behavior", "setting": "rats [6]; 0.5 h after administration", "result": "N"}, {"measurement": "Behavior", "setting": "rats [6]; 1 h after administration", "result": "N"}, {"measurement": "Behavior", "setting": "rats [6]; 2 h after administration", "result": "N"}, {"measurement": "Behavior", "setting": "rats [6]; 4 h after administration", "result": "N"}, {"measurement": "Behavior", "setting": "rats [6]; 6 h after administration", "result": "N"}, {"measurement": "Biting behavior", "setting": "rats [6]; [7]", "result": "N"}, {"measurement": "Hvpoactivity", "setting": "rats [6]; [7]", "result": "N"}, {"measurement": "Jumping", "setting": "rats [6]; [7]", "result": "N"}, {"measurement": "Biting behavior", "setting": "rats [6]; [8]", "result": "1 of 6"}, {"measurement": "Hvpoactivity", "setting": "rats [6]; [8]", "result": "6 of 6"}, {"measurement": "Jumping", "setting": "rats [6]; [8]", "result": "3 of 6"}, {"measurement": "Biting behavior", "setting": "rats [6]; [9]", "result": "N"}, {"measurement": "Hvpoactivity", "setting": "rats [6]; [9]", "result": "N"}, {"measurement": "Jumping", "setting": "rats [6]; [9]", "result": "2 of 6"}, {"measurement": "Biting behavior", "setting": "rats [6]; [10]", "result": "N"}, {"measurement": "Hvpoactivity", "setting": "rats [6]; [10]", "result": "N"}, {"measurement": "Jumping", "setting": "rats [6]; [10]", "result": "N"}, {"measurement": "Biting behavior", "setting": "rats [6]; [11]", "result": "N"}, {"measurement": "Hvpoactivity", "setting": "rats [6]; [11]", "result": "N"}, {"measurement": "Jumping", "setting": "rats [6]; [11]", "result": "N"}, {"measurement": "Abdominal position/side lying position", "setting": "rats [6]; [12]", "result": "6 of 6"}, {"measurement": "Biting behavior", "setting": "rats [6]; [12]", "result": "3 of 6"}, {"measurement": "Decreased muscle tone", "setting": "rats [6]; [12]", "result": "6 of 6"}, {"measurement": "Jumping", "setting": "rats [6]; [12]", "result": "2 of 6"}, {"measurement": "Loss of auricular reflex/righting reflex", "setting": "rats [6]; [12]", "result": "6 of 6"}, {"measurement": "Loss of flexed or extension reflex", "setting": "rats [6]; [12]", "result": "6 of 6"}, {"measurement": "Loss of pain reaction", "setting": "rats [6]; [12]", "result": "6 of 6"}, {"measurement": "Respiratory irregularity", "setting": "rats [6]; [12]", "result": "6 of 6"}, {"measurement": "Abdominal position/side lying position", "setting": "rats [6]; [13]", "result": "6 of 6"}, {"measurement": "Biting behavior", "setting": "rats [6]; [13]", "result": "N"}, {"measurement": "Decreased muscle tone", "setting": "rats [6]; [13]", "result": "6 of 6"}, {"measurement": "Jumping", "setting": "rats [6]; [13]", "result": "N"}, {"measurement": "Loss of auricular reflex/righting reflex", "setting": "rats [6]; [13]", "result": "6 of 6"}, {"measurement": "Loss of flexed or extension reflex", "setting": "rats [6]; [13]", "result": "6 of 6"}, {"measurement": "Loss of pain reaction", "setting": "rats [6]; [13]", "result": "6 of 6"}, {"measurement": "Respiratory irregularity", "setting": "rats [6]; [13]", "result": "6 of 6"}, {"measurement": "Abdominal position/side lying position", "setting": "rats [6]; [14]", "result": "6 of 6"}, {"measurement": "Biting behavior", "setting": "rats [6]; [14]", "result": "N"}, {"measurement": "Decreased muscle tone", "setting": "rats [6]; [14]", "result": "6 of 6"}, {"measurement": "Jumping", "setting": "rats [6]; [14]", "result": "N"}, {"measurement": "Loss of auricular reflex/righting reflex", "setting": "rats [6]; [14]", "result": "6 of 6"}, {"measurement": "Loss of flexed or extension reflex", "setting": "rats [6]; [14]", "result": "6 of 6"}, {"measurement": "Loss of pain reaction", "setting": "rats [6]; [14]", "result": "6 of 6"}, {"measurement": "Respiratory irregularity", "setting": "rats [6]; [14]", "result": "6 of 6"}, {"measurement": "Abdominal position/side lying position", "setting": "rats [6]; [15]", "result": "6 of 6"}, {"measurement": "Biting behavior", "setting": "rats [6]; [15]", "result": "N"}, {"measurement": "Decreased muscle tone", "setting": "rats [6]; [15]", "result": "6 of 6"}, {"measurement": "Jumping", "setting": "rats [6]; [15]", "result": "N"}, {"measurement": "Loss of auricular reflex/righting reflex", "setting": "rats [6]; [15]", "result": "6 of 6"}, {"measurement": "Loss of flexed or extension reflex", "setting": "rats [6]; [15]", "result": "6 of 6"}, {"measurement": "Loss of pain reaction", "setting": "rats [6]; [15]", "result": "6 of 6"}, {"measurement": "Respiratory irregularity", "setting": "rats [6]; [15]", "result": "6 of 6"}, {"measurement": "Abdominal position/side lying position", "setting": "rats [6]; [16]", "result": "6 of 6"}, {"measurement": "Biting behavior", "setting": "rats [6]; [16]", "result": "N"}, {"measurement": "Decreased muscle tone", "setting": "rats [6]; [16]", "result": "6 of 6"}, {"measurement": "Jumping", "setting": "rats [6]; [16]", "result": "N"}, {"measurement": "Loss of auricular reflex/righting reflex", "setting": "rats [6]; [16]", "result": "6 of 6"}, {"measurement": "Loss of flexed or extension reflex", "setting": "rats [6]; [16]", "result": "6 of 6"}, {"measurement": "Loss of pain reaction", "setting": "rats [6]; [16]", "result": "6 of 6"}, {"measurement": "Respiratory irregularity", "setting": "rats [6]; [16]", "result": "6 of 6"}]}
